Measured values published in US9593149B2, “Amylin and calcitonin receptor agonist” (Novo Nordisk A/S, priority 2014, dated 2017).
Peptide text beside a SMILES is read from it.

Legend:
[1] = biological target: T1, human calcitonin (a) receptor, BHK570 cells (Homo sapiens, UniProt P30988); test: Assay (II)b functional CRE-luciferase assay without albumin, human calcitonin receptor; format: cell-based; settings: Tested without HSA; read-out: hCTR funct. EC50
T1 construct: host or cells: BHK570
T1 sequence (P30988 25-474): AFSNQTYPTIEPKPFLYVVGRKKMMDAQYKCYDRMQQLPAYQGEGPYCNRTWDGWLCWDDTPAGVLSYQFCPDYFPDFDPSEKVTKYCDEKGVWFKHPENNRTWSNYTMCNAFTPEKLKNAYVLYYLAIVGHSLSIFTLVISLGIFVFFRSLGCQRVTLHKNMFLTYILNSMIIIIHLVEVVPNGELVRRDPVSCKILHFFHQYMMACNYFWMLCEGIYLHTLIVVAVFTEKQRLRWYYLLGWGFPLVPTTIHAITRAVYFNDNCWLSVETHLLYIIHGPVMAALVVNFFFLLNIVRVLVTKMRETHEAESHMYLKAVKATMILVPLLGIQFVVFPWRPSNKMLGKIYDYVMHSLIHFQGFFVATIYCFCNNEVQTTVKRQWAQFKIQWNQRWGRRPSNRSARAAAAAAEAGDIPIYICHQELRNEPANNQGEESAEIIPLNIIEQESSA
Summary of the method: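 BHK570 cells stably expressing human calcitonin receptor with CRE-luciferase reporter, plus RAMP-3 for the amylin 3(a) line. Cells stimulated 3 hours at 37 °C in albumin-free assay medium (0.1% ovalbumin, 10 mM Hepes pH 7.4); cAMP-driven luciferase read by luminescence.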

[2] = biological target: T2, human amylin receptor (human calcitonin receptor + human RAMP3), BHK tk'ts 13 cells (Homo sapiens, UniProt O60896+P30988); test: Assay (Va) binding to the human amylin receptor (whole cell); settings: read-out: hAmylin-R binding IC50
T2 construct: expressed in transfected cells; host or cells: BHK tk'ts 13
Method: The day before the assay the cells were Seeded into Poly-D-Lysin coated 384W Opaque White, BD BioCoat plates (10000 cells/well) and Incubated overnight at 37° C., 5% CO2, 95% humidity.

[3] = biological target: T3, human calcitonin receptor, BHK tk'ts 13 cells (Homo sapiens, UniProt P30988); test: Assay (VIIa) binding to the human calcitonin receptor (whole cell); settings: read-out: hCT-R binding IC50
T3 construct: expressed in transfected cells; host or cells: BHK tk'ts 13
T3 sequence (P30988 25-474): T1 sequence (P30988 25-474)
Method: Assay (VIIa)—Determination of Binding to the Human Calcitonin Receptor (Whole Cell Binding)
The binding assay was performed using a BHK tk'ts 13 cell line was stably transfected with the human calcitonin receptor, and a CRE-responsive luciferase reporter gene.
The day before the assay the cells were Seeded into Poly-D-Lysin coated 384W Opaque White, BD BioCoat plates (10000 cells/well) and Incubated overnight at 37° C., 5% CO2, 95% humidity. Then, the cells were washed in HBSS (4° C.), and incubated overnight at 4° C. in a binding buffer containing test compounds, 50 pM [125I]-human calcitonin, media w/o phenol red, 500 ml 0.1% ovalbumin (5 ml 10% ovalbumin) 10 mM Hepes (5 ml 1M) 1× Glutamin (5 ml 100×) 1% P/S (5 ml 100%) Complete (1 tablet/50 ml) 0.1% Pluronic F68®. The morning after, the plates were washed three times in HBSS (4° C.), and lyzed in Lysis buffer (0.1 M NaOH), 1% SDS. Scintillation cocktail (MicroScint40®) was added and the plates were shaken at 500 rpm for a short period. The plate was incubated at room temperature in the dark for 1 hour and Read on a TopCounter™ (Packard). The IC50 was calculated using (one site binding competition analysis) GraphPad Prism5 as a measure of receptor affinity. Assay (VIII)—Determination of Binding to the Rat Calcitonin Receptor

T2 sequence (O60896 24-148, one chain of several): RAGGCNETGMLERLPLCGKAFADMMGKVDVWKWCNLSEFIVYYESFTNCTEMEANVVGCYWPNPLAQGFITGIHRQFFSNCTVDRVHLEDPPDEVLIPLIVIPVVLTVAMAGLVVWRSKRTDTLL

- EC50 [1]: 2 pM
- IC50 [2]: 0.469 nM
- IC50 [3]: 0.481 nM
SMILES: CC(C)C[C@H](NC(=O)[C@H](C)NC(=O)[C@H](C)NC(=O)[C@@H](NC(=O)[C@H](CO)NC(=O)[C@H](CC(C)C)NC(=O)[C@H](CCC(=O)O)NC(=O)[C@H](CO)NC(=O)[C@H](C)NC(=O)[C@@H](N)CCC(=O)O)[C@@H](C)O)C(=O)NCC(=O)N[C@@H](CCCNC(=N)N)C(=O)N[C@@H](CC(C)C)C(=O)N[C@@H](CO)C(=O)N[C@@H](C)C(=O)N[C@@H](CCC(=O)O)C(=O)N[C@@H](CC(C)C)C(=O)N[C@@H](Cc1c[nH]cn1)C(=O)N[C@@H](CCC(=O)O)C(=O)N[C@@H](CC(C)C)C(=O)N[C@@H](C)C(=O)N[C@H](C(=O)N[C@@H](CC(C)C)C(=O)N1CCC[C@H]1C(=O)N[C@@H](CCCNC(=N)N)C(=O)N[C@H](C(=O)N[C@@H](CCC(=O)O)C(=O)N[C@H](C(=O)NCC(=O)N[C@@H](CO)C(=O)NCC(=O)N[C@@H](CO)C(=O)N1CCC[C@H]1C(N)=O)[C@@H](C)O)[C@@H](C)O)[C@@H](C)O [22bb, H—EASELSTAALGRLSAELHELATLPRTETGSGSP—NH2] (H-EASELSTAALGRLSAELHELATLPRTETGSGSP-NH2)
